Source: patent publication US20100092465A1, “TREATMENT OF GRAFT-VERSUS-HOST DISEASE” (priority 2006, published 2010)

How the values were obtained:
huIL-27 = target: T1, huIL-27 (Homo sapiens, UniProt Q14213+Q8NEV9); experiment: Phospho-STAT3 neutralization assay, mouse spleens, huIL-27; assay type: cell-based; settings: Mouse Spleens; ligand huIL-27 at EC90
T1 sequence (Q14213 21-229): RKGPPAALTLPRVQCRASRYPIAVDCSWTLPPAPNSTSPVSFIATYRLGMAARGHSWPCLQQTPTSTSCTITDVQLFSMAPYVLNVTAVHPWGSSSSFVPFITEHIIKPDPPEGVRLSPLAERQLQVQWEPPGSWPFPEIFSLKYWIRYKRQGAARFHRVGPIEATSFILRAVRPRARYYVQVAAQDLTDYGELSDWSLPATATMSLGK
T1 sequence (Q8NEV9 29-243): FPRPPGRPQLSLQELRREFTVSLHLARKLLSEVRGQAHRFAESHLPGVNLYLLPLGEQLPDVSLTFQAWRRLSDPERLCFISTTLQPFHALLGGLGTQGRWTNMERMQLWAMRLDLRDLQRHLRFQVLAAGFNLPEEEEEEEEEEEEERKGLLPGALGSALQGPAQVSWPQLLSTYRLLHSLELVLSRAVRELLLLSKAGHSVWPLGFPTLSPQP
Source text: Whole mouse spleens were harvested from C57 B1/6 mice and washed two times with 1×PBS before being plated out at 2×10^5 cells/well in assay media (RPMI 1640 plus 10% fetal bovine serum) in 96-well, round-bottom tissue culture plates. Total human PBMC (peripheral blood mononuclear cells) were thawed from a frozen vial collected from a leukapherisis donation and washed two times with 1×PBS before being plated out at 10^6 cells/well in assay media in 96-well, round-bottom tissue culture plates. […] Following pre-incubation, treatments were added to the plates containing the cells and incubated together at 37° C. for 15 minutes.
Following incubation, cells were washed with ice-cold wash buffer (BIO-PLEX Cell Lysis Kit, BIO-RAD Laboratories, Hercules, Calif.) and put on ice to stop the reaction according to manufacturer's instructions. […]
Capture beads (BIO-PLEX Phospho-Stat3 Assay, BIO-RAD Laboratories) were combined with 50 μL of 1:1 diluted lysates and added to a 96-well filter plate according to manufacture's instructions (BIO-PLEX Phosphoprotein Detection Kit, BIO-RAD Laboratories). […] After the final wash, beads were resuspended in 125 μL/well of bead suspension buffer, shaken for 30 seconds, and read on an array reader (BIO-PLEX, BIO-RAD Laboratories) according to the manufacture's instructions. Data were analyzed using analytical softward (BIO-PLEX MANAGER 3.0, BIO-RAD Laboratories). […]

[1] = test system: serum IgG1, IgG2a, IgE and cytokines; experiment: Serum immunoglobulin and cytokine levels in acute GVHD model; assay type: in vivo, mouse; settings: serum level
Experimental: Efficacy of IL-27 antagonists was assayed in a mouse model of acute graft-vs-host disease (Durie et al., J. Clin. Invest. 94:1333-1338, 1994). Parental mice (C57BL/6; n=12) were euthanized, and their spleens were collected. The pooled spleens were smashed using two glass slides to dissociate splenic cells. Lysis buffer was added to the splenocyte suspension to remove red blood cells. The cells were washed in RPMI 1640 (10% FBS) medium and resuspended in an appropriate amount of PBS to make a cell concentration of 300 million cells/ml. Protein treatments were administered by intraperitoneal injection every other day beginning on day-1 and continuing until day 15. Dexamethasone (DEX) was administered by injection daily on days 0 through 6. On day 0, 75 million donor splenic lymphocytes from B6 mice (250 .micro.l per injection) were injected intravenously into recipient mice (C57BL/6×DBA/2 F1 (BDF1); n=10 per group) mice. Mice were monitored 3 times a week for changes in body weight and any signs of moribundity. Mice that lost >20% of their initial body weight were euthanized. Otherwise, mice were sacrificed 18 days after the cell transfer. Spleens were collected, and a CTL-specific lysis assay using P815 cells was performed as a quantitative measurement of acute GVHD. Furthermore, spleens were stained for T- and B-cell markers, including MHC class I markers (H2^b and H2^d) to look at donor/recipient cell ratio (acute GVHD spleen cells are mostly donor cells). Sera were collected to measure serum level of IgG1, IgG2a, and IgE by ELISA, and cytokine and chemokine levels using a commercially available kit (Luminex Corporation, Austin, Tex.).

## human IL-27RA-Fc5: human IL27RA extracellular domain (amino acids 1 to 512 of SEQ ID NO:5) fused to Fc5, effector minus human gamma1 Fc; SEQ ID NO:3
huIL-27
  IC50: 0.32 nM
[1]
  IL-2: ↑↑↑
  IL-5: ↑↑
  IL-6: ↓↓↓
  IgE: ↑
  IgG1: ↑↑
  IgG2A: ↑↑
